# Results reported in PMC5999115, “Anti-tumor activity of phenoxybenzamine and its inhibition of histone deacetylases” (PLoS ONE, 2018).
# How the values were obtained:
# [1] = test system: CFA-affected animals; parameters: method as in PMID 20846436; conditions: cited from earlier work
# [2] = test system: MEXF UACC-257; assay: Oncotest CellTiter-Blue cell viability assay, 72 hours; format: cell-based, human
# Protocol: (§1) Further studies with varying drug concentrations on selected human cell lines, in most cases those studied in the NCI60 screen, were conducted by Oncotest GmbH laboratories, Freiburg, Germany; Oncotest is a division of Charles River Laboratories. The dissolution procedure for PBZ and the cell culture […] was 72 hours; anti-tumor activity was determined with the CellTiter-Blue® Cell Viability Assay, Promega, Mannheim, Germany. The 50% Inhibitory (IC50) concentrations were determined. The results are the average of duplicate assays. Paclitaxel was included as a reference compound to confirm the integrity of the assays. See S1 Appendix for further details.
# (§2) “Cell lines were routinely passaged once or twice weekly and maintained in culture for up to 20 passages. Cells were grown at 37°C in a humidified atmosphere with 5% CO2 in RPMI 1640 medium (25 mM HEPES, with L-glutamine, #FG1385, Biochrom, Berlin, Germany) supplemented with 10% (v/v) fetal calf serum (Sigma, Taufkirchen, Germany) and 0.1 mg/mL gentamicin (Life Technologies, Karlsruhe, Germany).”
# [3] = test system: MMXF RPMI 8226; assay: as above; format: cell-based, human
# Protocol: as §1, §2
# [4] = test system: LXFS DMS 273; assay: as above; format: cell-based, human
# Protocol: as §1, §2
# [5] = MEXF UACC-257, 1% FCS, study P495C
# [6] = MEXF UACC-257, 10% FCS, study P495A
# [7] = MMX RPMI8226, 1% FCS, study P495C
# [8] = MMX RPMI8226, 10% FCS, study P495A
# [9] = MMX RPMI8226, 10% FCS, study P495B
# [10] = LXFS DMS273, 1% FCS, study P495C
# [11] = LXFS DMS273, 10% FCS, study P495A
compound,measurement,setting,value
"CC(COc1ccccc1)N(CCCl)Cc1ccccc1 (stereo not drawn) [PBZ, phenoxybenzamine]",reversing the heightened pain sensitivity of the CFA-affected animals,[1],"equipotent with the nonsteroidal anti-inflammatory drug, naproxen"
same,Percent cell growth in Oncotest screen with 10% FCS (72 hr incubation),"[2]; 10 μM phenoxybenzamine, UACC-257",107%
same,IC50,"[2]; Homo sapiens, MEXF UACC-257 Melanoma, 1% FCS",49.8 µM
same,"Test/Control (%) at Drug Concentration [uM] 1,0E+00",[2]; [5],101%
same,"Test/Control (%) at Drug Concentration [uM] 1,0E+01",[2]; [5],107%
same,"Test/Control (%) at Drug Concentration [uM] 1,0E+02",[2]; [5],41%
same,"Test/Control (%) at Drug Concentration [uM] 3,2E+00",[2]; [5],106%
same,"Test/Control (%) at Drug Concentration [uM] 3,2E+01",[2]; [5],77%
same,"Test/Control (%) at Drug Concentration [uM] 1,0E+00",[2]; [6],101%
same,"Test/Control (%) at Drug Concentration [uM] 1,0E+01",[2]; [6],107%
same,"Test/Control (%) at Drug Concentration [uM] 1,0E+02",[2]; [6],68%
same,"Test/Control (%) at Drug Concentration [uM] 1,0E-01",[2]; [6],101%
same,"Test/Control (%) at Drug Concentration [uM] 1,0E-02",[2]; [6],101%
same,"Test/Control (%) at Drug Concentration [uM] 3,2E+00",[2]; [6],109%
same,"Test/Control (%) at Drug Concentration [uM] 3,2E+01",[2]; [6],106%
same,"Test/Control (%) at Drug Concentration [uM] 3,2E-01",[2]; [6],104%
same,"Test/Control (%) at Drug Concentration [uM] 3,2E-02",[2]; [6],113%
same,"Test/Control (%) at Drug Concentration [uM] 3,2E-03",[2]; [6],103%
same,Percent cell growth in Oncotest screen with 10% FCS (72 hr incubation),"[3]; 10 μM phenoxybenzamine, RPMI 8226",98%
same,IC50,"[3]; Homo sapiens, MMXF RPMI 8226 Myeloma, 1% FCS",44.4 µM
same,"Test/Control (%) at Drug Concentration [uM] 1,0E+00",[3]; [7],102%
same,"Test/Control (%) at Drug Concentration [uM] 1,0E+01",[3]; [7],95%
same,"Test/Control (%) at Drug Concentration [uM] 1,0E+02",[3]; [7],5%
same,"Test/Control (%) at Drug Concentration [uM] 3,2E+00",[3]; [7],101%
same,"Test/Control (%) at Drug Concentration [uM] 3,2E+01",[3]; [7],77%
same,"Test/Control (%) at Drug Concentration [uM] 1,0E+00",[3]; [8],89%
same,"Test/Control (%) at Drug Concentration [uM] 1,0E+01",[3]; [8],98%
same,"Test/Control (%) at Drug Concentration [uM] 1,0E+02",[3]; [8],10%
same,"Test/Control (%) at Drug Concentration [uM] 1,0E-01",[3]; [8],83%
same,"Test/Control (%) at Drug Concentration [uM] 1,0E-02",[3]; [8],80%
same,"Test/Control (%) at Drug Concentration [uM] 3,2E+00",[3]; [8],87%
same,"Test/Control (%) at Drug Concentration [uM] 3,2E+01",[3]; [8],99%
same,"Test/Control (%) at Drug Concentration [uM] 3,2E-01",[3]; [8],84%
same,"Test/Control (%) at Drug Concentration [uM] 3,2E-02",[3]; [8],76%
same,"Test/Control (%) at Drug Concentration [uM] 3,2E-03",[3]; [8],86%
same,"Test/Control (%) at Drug Concentration [uM] 1,0E+00",[3]; [9],88%
same,"Test/Control (%) at Drug Concentration [uM] 1,0E+01",[3]; [9],94%
same,"Test/Control (%) at Drug Concentration [uM] 1,0E+02",[3]; [9],16%
same,"Test/Control (%) at Drug Concentration [uM] 1,0E-01",[3]; [9],100%
same,"Test/Control (%) at Drug Concentration [uM] 1,0E-02",[3]; [9],100%
same,"Test/Control (%) at Drug Concentration [uM] 1,0E-03",[3]; [9],100%
same,"Test/Control (%) at Drug Concentration [uM] 3,2E+00",[3]; [9],92%
same,"Test/Control (%) at Drug Concentration [uM] 3,2E+01",[3]; [9],95%
same,IC50,"[4]; Homo sapiens, LXFS DMS 273 Small-cell lung, 1% FCS",99.8 µM
same,"Test/Control (%) at Drug Concentration [uM] 1,0E+00",[4]; [10],104%
same,"Test/Control (%) at Drug Concentration [uM] 1,0E+01",[4]; [10],91%
same,"Test/Control (%) at Drug Concentration [uM] 1,0E+02",[4]; [10],49%
same,"Test/Control (%) at Drug Concentration [uM] 3,2E+00",[4]; [10],101%
same,"Test/Control (%) at Drug Concentration [uM] 3,2E+01",[4]; [10],100%
same,"Test/Control (%) at Drug Concentration [uM] 1,0E+00",[4]; [11],76%
same,"Test/Control (%) at Drug Concentration [uM] 1,0E+01",[4]; [11],82%
same,"Test/Control (%) at Drug Concentration [uM] 1,0E+02",[4]; [11],105%
same,"Test/Control (%) at Drug Concentration [uM] 1,0E-01",[4]; [11],81%
same,"Test/Control (%) at Drug Concentration [uM] 1,0E-02",[4]; [11],75%
same,"Test/Control (%) at Drug Concentration [uM] 3,2E+00",[4]; [11],87%
same,"Test/Control (%) at Drug Concentration [uM] 3,2E+01",[4]; [11],100%
same,"Test/Control (%) at Drug Concentration [uM] 3,2E-01",[4]; [11],80%
